Data reported in ChEMBL document CHEMBL1201862, “PubChem BioAssay data set” (2004).
Values belong to the compound of their own block, whether it stands above or below them. Active and inactive are the calls of the source.

How the values were obtained:
[1] = growth suppression of beta-catenin-knockout colon cells, dose response, cell-based, HCT116, human colon tumor (AID 1045); assay type: functional;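 also: HCT116 colon tumor cells with beta catenin knocked out; cells exposed to compound for 60 hours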
[2] = molecular target: Beta-galactosidase (Escherichia coli, UniProt Q8VNN2); assay: beta-galactosidase enzyme inhibitors and activators, dose response, artefact control for CCR6 antagonist project, biochemical, E. coli enzyme, set 3 (AID 504712); assay type: functional
[3] = SV40 cytopathic effect inhibition and cytotoxicity, confirmation, SV40 T antigen inhibitor project, BSC cells (AID 2615); assay type: functional, cell-based
[4] = molecular target: T1, Mannose-6-phosphate isomerase (Homo sapiens, UniProt P34949); assay: inhibitors of human PMI, primary screen, biochemical, fluorescence intensity, coupled assay (AID 1209)
T1 sequence (P34949 whole entry): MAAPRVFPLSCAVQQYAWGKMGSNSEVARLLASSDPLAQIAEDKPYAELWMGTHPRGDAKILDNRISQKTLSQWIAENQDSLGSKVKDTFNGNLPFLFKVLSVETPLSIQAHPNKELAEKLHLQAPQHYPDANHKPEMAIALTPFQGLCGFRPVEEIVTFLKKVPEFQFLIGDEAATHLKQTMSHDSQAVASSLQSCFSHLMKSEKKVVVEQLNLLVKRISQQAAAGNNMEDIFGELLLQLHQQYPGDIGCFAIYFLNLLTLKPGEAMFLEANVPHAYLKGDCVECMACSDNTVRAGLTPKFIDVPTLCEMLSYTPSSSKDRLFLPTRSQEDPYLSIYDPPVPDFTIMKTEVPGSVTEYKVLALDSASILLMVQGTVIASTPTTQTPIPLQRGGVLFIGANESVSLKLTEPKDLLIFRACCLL

[5] = growth suppression of PTEN-null colon cells, dose response, cell-based, HCT116 PTEN knockout (AID 1047); assay type: functional;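 also: HCT116 colon tumor cells with PTEN knocked out; cells exposed to compound for 60 hours before readout; potency for loss of cell viability measured by luminescence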
[6] = molecular target: Glucose-6-phosphate 1-dehydrogenase (Homo sapiens, UniProt P11413); assay: human G6PD enzyme inhibitors, dose response, selectivity assay for P. falciparum G6PD inhibitor project, biochemical, fluorescence (AID 504792); assay type: functional
[7] = molecular target: Large T antigen (Simian virus 40, UniProt P03070); assay type: functional, Betapolyomavirus macacae;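 also: Confirmatory-stage PubChem screen for compounds that inhibit SV40 T antigen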
[8] = Fluorescence-based cell-based high throughput dose response assay for inhibitors of the interaction of nucleotide-binding oligomerization domain containing 2 (NOD2) and the receptor-interacting serine-threonine kinase 2 (RIPK2).; assay type: functional; conditions: Homo sapiens
[9] = molecular target: T2, Voltage-gated N-type calcium channel alpha-1B subunit/Amyloid beta A4 precursor protein-binding family A member 1 (Homo sapiens, UniProt Q00975+Q02410); assay type: protein assay
[10] = molecular target: T2, Voltage-gated N-type calcium channel alpha-1B subunit/Amyloid beta A4 precursor protein-binding family A member 1; assay type: protein assay; remark: listed apart in the source
[11] = molecular target: T3, Fatty acid synthase (Homo sapiens, UniProt P49327); assay: FAS thioesterase domain inhibitors, dose response, biochemical, kinetic fluorescence intensity (AID 624326); assay type: functional;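 also: rate of fluorescence rise from hydrolysis of a fluorogenic O-methyl fluorescein ester substrate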
[12] = molecular target: Cytochrome P450 2D6 (Homo sapiens, UniProt P10635);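 also: CYP2D6 member of a cytochrome P450 panel assay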
[13] = molecular target: T3, Fatty acid synthase; assay: FAS thioesterase domain inhibitors, dose response, biochemical, endpoint fluorescence intensity, uHTS hits (AID 624327); assay type: functional;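 also: fluorescence from hydrolysis of an O-methyl fluorescein acyl ester substrate by the enzyme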
[14] = molecular target: Prothrombin (Bos taurus, UniProt P00735); assay: thrombin inhibition, dose response, biochemical, fluorescence polarization, uHTS hits (AID 602369); assay type: functional
[15] = molecular target: Intestinal-type alkaline phosphatase (Homo sapiens, UniProt P09923); assay: activation of human intestinal alkaline phosphatase – biochemical, dose response (AID 488873); assay type: functional
[16] = molecular target: T4, Alkaline phosphatase, tissue-nonspecific isozyme (Homo sapiens, UniProt P05186); assay: TNAP enzyme activators, dose response, selectivity assay for mouse IAP activator project, biochemical, TNAP isozyme, mouse IAP uHTS hits (AID 488880); assay type: functional
T4 sequence (P05186 whole entry): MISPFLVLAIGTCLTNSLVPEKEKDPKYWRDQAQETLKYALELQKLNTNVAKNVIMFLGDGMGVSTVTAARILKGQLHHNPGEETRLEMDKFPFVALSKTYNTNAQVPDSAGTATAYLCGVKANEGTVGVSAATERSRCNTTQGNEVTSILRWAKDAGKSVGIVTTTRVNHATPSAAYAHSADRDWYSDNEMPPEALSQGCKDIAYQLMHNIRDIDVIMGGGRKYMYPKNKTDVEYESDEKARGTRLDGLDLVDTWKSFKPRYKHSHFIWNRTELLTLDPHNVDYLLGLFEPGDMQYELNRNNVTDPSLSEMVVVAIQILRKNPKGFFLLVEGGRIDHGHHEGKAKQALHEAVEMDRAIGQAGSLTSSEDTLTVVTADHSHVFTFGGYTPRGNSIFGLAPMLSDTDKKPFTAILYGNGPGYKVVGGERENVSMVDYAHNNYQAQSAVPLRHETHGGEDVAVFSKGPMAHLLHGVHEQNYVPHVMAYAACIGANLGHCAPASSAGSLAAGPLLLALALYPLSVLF

[17] = molecular target: T5, Cysteine protease ATG4B (Homo sapiens, UniProt Q9Y4P1); assay type: functional;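 also: Fluorescence-based dose-response confirmation assay measuring inhibition of ATG4B activity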
T5 sequence (Q9Y4P1 whole entry): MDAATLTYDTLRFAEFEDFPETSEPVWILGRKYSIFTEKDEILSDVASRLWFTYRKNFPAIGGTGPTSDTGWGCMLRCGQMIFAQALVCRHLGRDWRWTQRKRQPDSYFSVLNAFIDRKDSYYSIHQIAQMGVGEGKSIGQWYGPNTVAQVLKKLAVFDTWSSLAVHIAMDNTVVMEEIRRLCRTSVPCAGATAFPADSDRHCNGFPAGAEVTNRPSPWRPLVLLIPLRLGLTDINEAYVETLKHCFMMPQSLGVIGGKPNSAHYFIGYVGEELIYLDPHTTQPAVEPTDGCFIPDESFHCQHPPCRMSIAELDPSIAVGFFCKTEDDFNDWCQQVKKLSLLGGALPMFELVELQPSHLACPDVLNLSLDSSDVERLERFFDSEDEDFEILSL

[18] = system: Vero; assay: Vero cell cytotoxicity, cytotoxicity control for flavivirus capping enzyme inhibitors (AID 588742); assay type: functional; conditions: Chlorocebus sabaeus
[19] = molecular target: ORF 73 (Human herpesvirus 8, UniProt O40947); assay: inhibitors of C-LANA binding to LBS DNA, dose response, biochemical, fluorescence polarization, cherry-picked samples (AID 504725); parameters: species or system Human gammaherpesvirus 8;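 also: fluorescence polarization of a labeled DNA duplex reporting LANA DNA binding; potency is for inhibitors that block LANA binding to the DNA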
[20] = molecular target: Intestinal-type alkaline phosphatase (Mus musculus, UniProt P24822); assay: mouse intestinal alkaline phosphatase activators, dose response, biochemical, luminescence, uHTS hits (AID 488783); assay type: functional
[21] = molecular target: Phospholipase A2 (Homo sapiens, UniProt P04054); assay type: functional;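 also: confirmatory dose-response counterscreen on phospholipase A2, testing hits that came from an ultra-high-throughput screen for ATG4B inhibitors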
[22] = molecular target: Genome polyprotein (dengue virus type 2, UniProt P29990); assay: Dengue-2 NS5 methyltransferase inhibitors, primary screen, biochemical, confirmation dose response (AID 588689); assay type: functional
[23] = molecular target: 26S proteasome non-ATPase regulatory subunit 14 (Homo sapiens, UniProt O00487); assay: inhibition of proteasome subunit RPN11 – biochemical, fluorescence polarization, uHTS hits, confirmation (AID 602368); assay type: functional
[24] = molecular target: 72 kDa type IV collagenase (Homo sapiens, UniProt P08253); assay: Dose Response validation of uHTS RPN11 inhibitor hits using a MMP-2 Fluorescence assay.; assay type: functional
[25] = molecular target: Lysine-specific demethylase 4C (Homo sapiens, UniProt Q9H3R0); assay: GASC-1 (JMJD2C) histone demethylase inhibitors, dose response, biochemical, DELFIA europium, cherry-picked samples (AID 488835); assay type: functional
[26] = C. albicans growth with fluconazole, confirmation, fluorescence, retest (AID 2467); assay type: functional, cell-based
[27] = NIH-3T3 fibroblast cytotoxicity, dose response, cytotoxicity control, cell-based, fluorescence, Alamar Blue, secondary assay (AID 2327); assay type: functional;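 also: NIH-3T3 mouse fibroblasts cultured with fluconazole at 8 µg/mL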

Large T antigen, sequence (P03070 whole entry, the tested form may be a part): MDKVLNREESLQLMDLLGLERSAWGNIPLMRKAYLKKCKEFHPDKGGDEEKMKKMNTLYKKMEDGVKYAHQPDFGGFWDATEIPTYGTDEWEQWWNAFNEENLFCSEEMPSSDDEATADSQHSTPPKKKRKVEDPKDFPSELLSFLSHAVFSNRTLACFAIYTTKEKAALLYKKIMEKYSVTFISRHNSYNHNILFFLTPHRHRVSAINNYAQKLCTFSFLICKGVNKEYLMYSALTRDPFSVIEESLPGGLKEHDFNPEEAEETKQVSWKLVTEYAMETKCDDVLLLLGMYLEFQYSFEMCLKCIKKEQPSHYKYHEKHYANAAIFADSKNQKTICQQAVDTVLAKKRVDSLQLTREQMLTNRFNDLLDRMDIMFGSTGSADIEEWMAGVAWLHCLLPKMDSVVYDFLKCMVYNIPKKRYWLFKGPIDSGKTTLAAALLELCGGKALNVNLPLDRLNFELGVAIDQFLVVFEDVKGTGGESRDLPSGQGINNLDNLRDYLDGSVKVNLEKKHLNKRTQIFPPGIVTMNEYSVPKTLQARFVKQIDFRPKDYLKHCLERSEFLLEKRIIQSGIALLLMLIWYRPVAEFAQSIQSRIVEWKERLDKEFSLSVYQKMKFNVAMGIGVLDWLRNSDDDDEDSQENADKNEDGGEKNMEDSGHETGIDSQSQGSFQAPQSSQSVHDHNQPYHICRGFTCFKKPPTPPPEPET
T3 sequence (P49327 whole entry, the tested form may be a part): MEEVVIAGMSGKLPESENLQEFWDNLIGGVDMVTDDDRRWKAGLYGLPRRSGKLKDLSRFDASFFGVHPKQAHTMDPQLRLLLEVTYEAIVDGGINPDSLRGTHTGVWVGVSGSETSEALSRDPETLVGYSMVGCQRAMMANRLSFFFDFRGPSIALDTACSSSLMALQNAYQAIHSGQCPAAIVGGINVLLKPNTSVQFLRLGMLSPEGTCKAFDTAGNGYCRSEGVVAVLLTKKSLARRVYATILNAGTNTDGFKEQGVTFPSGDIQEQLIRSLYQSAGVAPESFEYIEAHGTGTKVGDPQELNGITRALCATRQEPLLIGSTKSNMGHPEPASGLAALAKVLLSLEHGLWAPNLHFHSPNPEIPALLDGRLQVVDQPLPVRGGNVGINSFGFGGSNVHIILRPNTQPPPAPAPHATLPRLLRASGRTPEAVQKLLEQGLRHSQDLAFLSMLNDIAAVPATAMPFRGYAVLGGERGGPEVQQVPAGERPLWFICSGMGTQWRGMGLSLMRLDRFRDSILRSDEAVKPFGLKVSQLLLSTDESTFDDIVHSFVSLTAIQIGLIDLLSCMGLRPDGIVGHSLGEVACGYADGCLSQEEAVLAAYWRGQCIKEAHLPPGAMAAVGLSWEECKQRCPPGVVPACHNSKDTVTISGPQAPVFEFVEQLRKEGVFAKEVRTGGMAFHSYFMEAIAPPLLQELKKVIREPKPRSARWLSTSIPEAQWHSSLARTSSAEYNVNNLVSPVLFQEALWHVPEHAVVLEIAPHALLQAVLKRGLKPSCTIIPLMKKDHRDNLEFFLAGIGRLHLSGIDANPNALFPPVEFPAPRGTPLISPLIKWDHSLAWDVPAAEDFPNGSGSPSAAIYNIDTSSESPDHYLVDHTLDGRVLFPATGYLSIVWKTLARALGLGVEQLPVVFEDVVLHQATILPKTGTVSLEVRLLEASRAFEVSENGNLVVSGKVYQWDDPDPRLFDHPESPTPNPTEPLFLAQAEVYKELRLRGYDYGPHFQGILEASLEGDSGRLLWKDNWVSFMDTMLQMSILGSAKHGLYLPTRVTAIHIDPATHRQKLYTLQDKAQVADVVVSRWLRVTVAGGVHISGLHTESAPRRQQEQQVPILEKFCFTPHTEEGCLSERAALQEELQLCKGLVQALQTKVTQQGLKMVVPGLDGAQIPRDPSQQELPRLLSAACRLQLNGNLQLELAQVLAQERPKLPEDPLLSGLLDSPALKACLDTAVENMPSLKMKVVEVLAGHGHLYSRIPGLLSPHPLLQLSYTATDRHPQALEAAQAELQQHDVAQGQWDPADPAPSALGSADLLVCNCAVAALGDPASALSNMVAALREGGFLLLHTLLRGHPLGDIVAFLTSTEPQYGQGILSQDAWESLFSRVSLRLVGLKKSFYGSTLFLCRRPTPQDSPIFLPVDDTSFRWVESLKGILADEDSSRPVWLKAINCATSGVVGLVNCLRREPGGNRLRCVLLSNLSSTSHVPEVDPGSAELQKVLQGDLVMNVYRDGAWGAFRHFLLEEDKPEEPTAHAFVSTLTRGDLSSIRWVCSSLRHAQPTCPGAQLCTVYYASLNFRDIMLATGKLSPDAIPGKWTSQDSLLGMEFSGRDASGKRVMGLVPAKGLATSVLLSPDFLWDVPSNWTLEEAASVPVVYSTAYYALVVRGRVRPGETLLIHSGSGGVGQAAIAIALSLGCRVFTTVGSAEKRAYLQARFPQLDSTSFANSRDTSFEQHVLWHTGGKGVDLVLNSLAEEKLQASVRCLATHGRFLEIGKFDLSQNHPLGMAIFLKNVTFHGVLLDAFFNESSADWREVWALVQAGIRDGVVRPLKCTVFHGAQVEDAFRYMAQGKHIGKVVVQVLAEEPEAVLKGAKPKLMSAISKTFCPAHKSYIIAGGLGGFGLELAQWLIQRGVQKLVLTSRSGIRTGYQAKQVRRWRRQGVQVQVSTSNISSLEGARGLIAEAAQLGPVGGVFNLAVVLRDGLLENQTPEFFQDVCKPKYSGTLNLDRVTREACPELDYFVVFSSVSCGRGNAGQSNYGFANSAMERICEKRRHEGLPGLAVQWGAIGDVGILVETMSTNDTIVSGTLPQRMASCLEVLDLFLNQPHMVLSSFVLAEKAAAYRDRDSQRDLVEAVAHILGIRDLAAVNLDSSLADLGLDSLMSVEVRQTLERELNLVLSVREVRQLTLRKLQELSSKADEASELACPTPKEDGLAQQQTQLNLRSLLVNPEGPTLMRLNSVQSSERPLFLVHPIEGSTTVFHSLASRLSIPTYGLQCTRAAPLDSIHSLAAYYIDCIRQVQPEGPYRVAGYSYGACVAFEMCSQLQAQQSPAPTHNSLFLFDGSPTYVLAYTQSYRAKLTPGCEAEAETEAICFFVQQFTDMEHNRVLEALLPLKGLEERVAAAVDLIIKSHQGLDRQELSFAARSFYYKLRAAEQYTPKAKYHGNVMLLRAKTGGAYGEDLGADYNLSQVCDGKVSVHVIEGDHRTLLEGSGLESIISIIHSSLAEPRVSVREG
Genome polyprotein, sequence (P29990 2492-3391 limits assumed): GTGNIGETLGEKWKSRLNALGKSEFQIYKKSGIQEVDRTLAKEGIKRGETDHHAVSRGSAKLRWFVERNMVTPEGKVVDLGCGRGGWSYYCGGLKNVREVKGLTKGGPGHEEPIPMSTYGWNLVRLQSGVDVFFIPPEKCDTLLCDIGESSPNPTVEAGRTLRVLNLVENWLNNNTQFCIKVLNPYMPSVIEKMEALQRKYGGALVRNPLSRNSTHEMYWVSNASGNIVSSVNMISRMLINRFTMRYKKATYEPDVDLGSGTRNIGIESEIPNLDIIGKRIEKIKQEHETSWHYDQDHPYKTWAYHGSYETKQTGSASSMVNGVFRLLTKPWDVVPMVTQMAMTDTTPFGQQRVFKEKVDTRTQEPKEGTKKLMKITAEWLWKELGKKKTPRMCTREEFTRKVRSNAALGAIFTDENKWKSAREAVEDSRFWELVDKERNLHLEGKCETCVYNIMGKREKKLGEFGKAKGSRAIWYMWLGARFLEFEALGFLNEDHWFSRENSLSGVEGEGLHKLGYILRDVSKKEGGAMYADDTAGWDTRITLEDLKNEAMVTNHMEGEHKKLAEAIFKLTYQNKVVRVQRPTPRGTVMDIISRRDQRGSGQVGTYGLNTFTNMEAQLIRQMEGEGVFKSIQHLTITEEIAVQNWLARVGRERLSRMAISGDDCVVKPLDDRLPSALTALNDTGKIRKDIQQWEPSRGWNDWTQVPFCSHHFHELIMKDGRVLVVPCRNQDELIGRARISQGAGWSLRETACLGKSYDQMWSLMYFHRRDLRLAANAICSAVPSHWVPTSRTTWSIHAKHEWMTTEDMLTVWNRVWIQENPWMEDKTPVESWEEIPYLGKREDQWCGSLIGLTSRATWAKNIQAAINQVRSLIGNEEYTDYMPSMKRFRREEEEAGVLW
Phospholipase A2, sequence (P04054 whole entry): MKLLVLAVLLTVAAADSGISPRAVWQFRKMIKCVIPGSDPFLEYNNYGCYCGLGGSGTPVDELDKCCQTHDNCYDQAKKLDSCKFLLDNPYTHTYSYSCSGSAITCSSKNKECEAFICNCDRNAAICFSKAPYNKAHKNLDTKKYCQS
Cytochrome P450 2D6, sequence (P10635 whole entry, the tested form may be a part): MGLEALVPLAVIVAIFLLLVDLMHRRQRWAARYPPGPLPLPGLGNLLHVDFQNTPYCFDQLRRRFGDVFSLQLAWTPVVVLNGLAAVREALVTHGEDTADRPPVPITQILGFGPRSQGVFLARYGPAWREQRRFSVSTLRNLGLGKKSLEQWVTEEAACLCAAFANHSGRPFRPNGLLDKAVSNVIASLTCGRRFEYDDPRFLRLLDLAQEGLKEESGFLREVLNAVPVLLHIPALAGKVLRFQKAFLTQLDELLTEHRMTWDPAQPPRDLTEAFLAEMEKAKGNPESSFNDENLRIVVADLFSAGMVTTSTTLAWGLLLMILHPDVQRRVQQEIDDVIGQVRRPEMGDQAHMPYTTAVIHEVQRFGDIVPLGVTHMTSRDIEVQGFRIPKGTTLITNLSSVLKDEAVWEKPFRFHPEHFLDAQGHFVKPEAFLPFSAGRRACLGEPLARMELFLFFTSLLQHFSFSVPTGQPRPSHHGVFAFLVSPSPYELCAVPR
26S proteasome non-ATPase regulatory subunit 14, sequence (O00487 whole entry): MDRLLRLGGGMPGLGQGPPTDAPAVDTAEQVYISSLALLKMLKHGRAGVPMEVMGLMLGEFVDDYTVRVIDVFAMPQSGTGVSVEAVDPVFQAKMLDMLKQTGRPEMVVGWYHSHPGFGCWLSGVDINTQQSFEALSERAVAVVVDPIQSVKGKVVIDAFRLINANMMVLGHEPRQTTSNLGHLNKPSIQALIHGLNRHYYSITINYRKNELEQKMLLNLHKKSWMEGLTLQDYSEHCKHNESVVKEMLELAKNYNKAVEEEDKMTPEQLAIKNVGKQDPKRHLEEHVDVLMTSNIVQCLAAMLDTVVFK

Compound: ClC(Cl)(c1nnnn1-c1ccccc1)c1nnnn1-c1ccccc1
EC50 [1]: 9.79 µM (active) | IC50 [2]: > 66.6 µM (inactive) | IC50 [3]: 10 µM (active) | IC50 [4]: > 50 µM (not active) | EC50 [5]: 10.8 µM (active) | IC50 [6]: > 80 µM (inactive) | IC50 [7]: 5.47 µM (active) | IC50 [8]: 5.41 µM (active) | IC50 [9]: 4.38 µM (active) | IC50 [10]: 5.93 µM (active)

Compound: CC(C)(C)c1ccc(OC(=O)Nc2ccc(O)c(C(=O)O)c2)cc1
IC50 [11]: 11.7 µM (active) | AC50 [12]: inconclusive | IC50 [13]: 9.66 µM (active)

IC50 [14]: 98.5 µM (active) | EC50 [15]: 50.8 µM (active) | EC50 [16]: 62.2 µM (active) | IC50 [17]: 11 µM (active) | IC50 [7]: 47.9 µM (active) | AC50 [19]: 66.3 µM (active) | EC50 [20]: 51.2 µM (active) | IC50 [21]: 26.6 µM (inactive) | IC50 [22]: 79.4 µM (active) | IC50 [23]: 14.6 µM (active) | IC50 [24]: 0.968 µM (active)
Compound: CC(C(=O)Nc1ccc(C(=O)O)c(O)c1)N1C(=O)/C(=C\c2ccco2)SC1=S (stereo not drawn)
CC50 [18]: > 40 µM (active)

Compound: FC(F)(F)c1ccccc1N=C(S)NN=C1CCCCCC1
AC50 [25]: 6.8 µM (active) | EC50 [26]: > 38 µM (not active) | EC50 [27]: 54 µM (active)
